{
  "source": "patent US8513214B2",
  "about": "“C4′-substituted-2-deoxyadenosine analogs and methods of treating HIV” (The United States of America as Represented by the …, priority 2007, dated 2013)",
  "key": {"[1]": {"system": "HIV-1 SSGR+215", "type": "cell-based"}, "[2]": {"system": "HIV-1", "type": "cell-based"}, "[3]": {"system": "HIV-1 AZT-R", "type": "cell-based"}, "[4]": {"system": "HIV-1 vectors (wild-type)", "type": "cell-based"}, "[5]": {"system": "MT4 cells", "conditions": "work from Ohuri and others; cited from earlier work"}, "[6]": {"system": "HIV-1 viral DNA synthesis (reverse transcriptase)", "assay": "Quantitative PCR of viral DNA from infected HOS cells", "type": "cell-based", "conditions": "viral DNA collected 2, 4, 6 and 24 hours post-infection", "excerpt": "FIG. 5 is a schematic illustrating the steps of HIV-1 viral DNA synthesis. Viral DNA was isolated from infections over time and assayed by quantitative PCR to determine the amount of viral DNA produced corresponding to various points of DNA synthesis. The regions targeted by our PCR primers and probes are indicated and correspond to: initiation (RU5), minus strand transfer (U3), full length viral DNA (gag), and plus strand transfer (corresponding to second strand synthesis).\nThe effects of the target compounds on viral DNA production were determined by quantitative PCR. 293 cells were transfected as above and transfections were washed with PBS 8 hours post-transfection and fresh medium added. The transfection wash step was repeated 24 hours post-transfection and fresh medium was added. On the day prior to infection, HOS cells were plated at 2×10^5 cells on to 60 mm plates. Virus-containing supernatants were harvested at 48 hours as above and treated with 20 U/mL of RNase-free DNase I (Roche Applied Science, Indianapolis, Ind.) and 30 U/mL of DNase Turbo (Ambion, Foster City, Calif.). Cells were pre-incubated with the target compounds for 3 h. For each target compound, the treated virus-containing supernatants were concentrated to 7.5 mL, and infections carried out by adding 1.75 mL each to 4 plates of HOS cells. Cells were harvested at 2, 4, 6, and 24 hour intervals and the viral DNA purified using the Qiagen EZ1 DNA tissue kit (Valencia, Calif.). Quantitative PCR (qPCR) was used to determine quantities of DNA corresponding to various steps along the viral DNA synthesis pathway. qPCR primers and probes used were as previously described. (Julias, J. G., Ferris, A. L., Boyer, P. L. and Hughes, S. H. (2001) J. Virol. 75, 6537-46.).\nIn order to determine that the compounds are targeting HIV-1 reverse transcriptase in the cell based assays, viral DNA was isolated from infections over time and assayed by quantitative PCR to determine the amount of viral DNA produced corresponding to various points of DNA synthesis (FIG. 5). The regions targeted by our PCR primers and probes correspond to: initiation (RU5), minus strand transfer (U3), full length viral DNA (gag), and plus strand transfer (corresponding to the initiation of second strand synthesis)."}, "[7]": {"system": "HIV-1 Q151M complex", "type": "cell-based"}, "[8]": {"molecular_target": "T1, HIV-1 RT (Human immunodeficiency virus type 1 group M subtype B, UniProt P03366)", "T1 construct": "The expression and purification of HIV-1 RT and the polymerase assays were done as previously described; made in house", "assay": "Polymerase (DNA) extension assay with purified recombinant HIV-1 RT", "type": "biochemical", "description": "FIG. 15. In vitro DNA extension using purified, recombinant HIV-1 RT, with varying amounts of C4′-methyl-2-deoxyadenosinetriphosphate and either (A) a DNA template or (B) and RNA template. […] Bands in the lane containing equimolar amounts of ddATP and dATP correspond to pausing events at the site of incorporation of the nuclosidetriphosphate analog.\nThe expression and purification of HIV-1 RT and the polymerase assays were done as previously described. For the extension assays, 7.0µl of a […] of synthetic DNA oligonucleotide (5′-[…]-3′ (SEQ ID NO:1); Biosource, CA) was 5′ end-labeled, then annealed to an excess of either a DNA template (5′-[…]-3′ (SEQ ID NO:2)) or an RNA template (5′-[…]-3′ (SEQ ID NO:3)). The A residue is the first nucleotide past the 3′ end of the primer. The annealed template-primer (T/P) was suspended in a final concentration of 25.0 mM Tris (pH 8.0), 75 mM KCl, 8.0 mM MgCl2, 100.0µg/ml BSA, 10.0 mM CHAPS, and 10.0µM each of dCTP, dGTP, and TTP. For the RNA template reactions, the mixture was also supplemented with 1 U/µl of SuperAsin (Ambion). The reaction buffer was aliquoted to individual tubes, then supplemented with a total of 10.0µM dATP and/or adenosine triphosphate analog (as described in the figure legend). The reactions were initiated by the addition of 1.0µg RT and the reaction was incubated at 37° C. for the various indicated time intervals. Reactions were stopped by the addition of EDTA and the reactions precipitated by the addition of isopropyl alcohol. The products were resuspended in formamide gel loading buffer II (Ambion), heated at 70° for 5 min to denature the products, and fractionated on a 15% polyacrylamide sequencing gel."}, "[9]": {"system": "HOS cells"}, "[10]": {"system": "NRTI-resistant HIV-1, including the M184V variant", "conditions": "infected MT-4 cells, Ohrui 2006, Ohuri 2007, Kawamoto 2008, cited from earlier work"}, "[11]": {"system": "HIV-1 M184V variant", "type": "cell-based", "conditions": "HOS cells, single-cycle infectivity assay"}, "[12]": {"system": "MT-4 cells", "conditions": "previously reported; cited from earlier work"}},
  "note": "Like-named read-outs stand apart in the source and are kept apart here.",
  "data": [
    {"smiles": "C[C@]1(CO)O[C@@H](n2cnc3c(N)ncnc32)C[C@@H]1O", "note": "[C4′Me-2-dA, C4′-methyl-2-deoxyadenosine]", "values": [
      {"measurement": "inhibition of NRTI resistance mutant SSGR+215", "setting": "[1]", "value": "inhibitory"},
      {"measurement": "effectiveness in TZM-bl cells compared with HOS cells", "setting": "[2]", "value": "equally as effective"},
      {"measurement": "inhibition of NRTI resistance mutant AZT-R", "setting": "[3]", "value": "inhibitory"},
      {"measurement": "EC50", "setting": "[4]; read-out: EC50, relative infectivity of HIV-1 vectors", "value": 48, "unit": "nM"},
      {"measurement": "cytotoxicity in MT4 cell killing assays", "setting": "[5]", "value": "cytotoxic"},
      {"measurement": "inhibition of DNA synthesis compared with AZT", "setting": "[6]", "value": "as well as or better than AZT"},
      {"measurement": "late stage viral DNA synthesis (gag and 2nd Strand Transfer)", "setting": "[6]", "value": "significantly diminished"},
      {"measurement": "inhibition of NRTI resistance mutant Q151M complex", "setting": "[7]", "value": "inhibitory"}
    ]},
    {"smiles": "C[C@]1(COP(=O)(O)OP(=O)(O)OP(=O)(O)O)O[C@@H](n2cnc3c(N)ncnc32)C[C@@H]1O", "note": "[C4′-methyl-2-dexoyadenosinetriphosphate]", "values": [
      {"measurement": "chain termination", "setting": "[8]; longer time points, extended DNA products observed", "value": "does not act as a chain terminator"},
      {"measurement": "competition with normal nucleosides", "setting": "[8]; mixtures of ATP and the triphosphate", "value": "able to compete with normal nucleosides during DNA synthesis"},
      {"measurement": "effect of triphosphate incorporation on DNA synthesis", "setting": "[8]; short time points, DNA or RNA template", "value": "pausing during DNA synthesis at the point of incorporation"}
    ]},
    {"smiles": "CCC1(CO)OC(n2cnc3c(N)ncnc32)CC1O", "note": "(stereo not drawn) [C4′Et-2-dA, 5-(6-Amino-purin-9-yl)-2-ethyl-2-hydroxymethyl-tetrahydro-furan-3-ol]", "values": [
      {"measurement": "inhibition of NRTI resistance mutant SSGR+215", "setting": "[1]", "value": "inhibitory"},
      {"measurement": "effectiveness in TZM-bl cells compared with HOS cells", "setting": "[2]; TZM-bl cells", "value": "equally as effective"},
      {"measurement": "inhibition of NRTI resistance mutant AZT-R", "setting": "[3]", "value": "inhibitory"},
      {"measurement": "increase in the EC50 value, AZT-R variant over wild-type", "setting": "[3]; HOS cells", "value": 3.9, "unit": "fold"},
      {"measurement": "inhibition of DNA synthesis compared with AZT", "setting": "[6]", "value": "as well as or better than AZT"},
      {"measurement": "late stage viral DNA synthesis (gag and 2nd Strand Transfer)", "setting": "[6]", "value": "significantly diminished"},
      {"measurement": "inhibition of NRTI resistance mutant Q151M complex", "setting": "[7]", "value": "inhibitory"},
      {"measurement": "selectivity index (CC50 to EC50 ratio)", "setting": "[9]", "value": "greater than 140"}
    ]},
    {"smiles": "C#C[C@]1(CO)O[C@@H](n2cnc3c(N)nc(F)nc32)C[C@@H]1O", "note": "[C4′-ethynl-deoxy-2-fluoro-adenosine, C4′-ethynl-deoxy-2-fluoroadenosine]", "values": [
      {"measurement": "effectiveness against HIV-1 in MT-4 cells", "setting": "[10]", "value": "effective compound against NRTI-resistant HIV-1, including the M184V variant"},
      {"measurement": "effectiveness against HIV-1 in MT-4 cells", "setting": "[10]; listed as C4′-ethynl-deoxy-2-fluoroadenosine", "value": "effective against the wild-type and the M184V reverse transcriptase variant"},
      {"measurement": "increase in EC50 values, M184V variant over wild-type", "setting": "[11]", "value": 2, "unit": "fold"},
      {"measurement": "cytotoxicity in MT-4 cells", "setting": "[12]", "value": "decreased cytotoxicity"},
      {"measurement": "efficacy against WT versus C4′-methyl- and -ethyl-2-deoxyadenosine", "setting": "[4]", "value": "slightly improved efficacies against WT"}
    ]}
  ]
}
